ChEMBL document CHEMBL1149517, “Synthesis and molecular modeling of a lisinopril-tryptophan analogue inhibitor of angiotensin I-converting enzyme” (Bioorg Med Chem Lett, 2006)
Activity calls are given as the source filed them. The rule behind the calls is not given here.

What was measured:
[1] = target: T1, Angiotensin-converting enzyme (Homo sapiens, UniProt P12821); experiment: Inhibition of somatic ACE N domain upto 500 uM
[2] = target: T1, Angiotensin-converting enzyme; experiment: Selectivity for ACE C domain over ACE N domain
[3] = target: T1, Angiotensin-converting enzyme; experiment: Inhibition of testis ACE C domain

T1 sequence (P12821 whole entry): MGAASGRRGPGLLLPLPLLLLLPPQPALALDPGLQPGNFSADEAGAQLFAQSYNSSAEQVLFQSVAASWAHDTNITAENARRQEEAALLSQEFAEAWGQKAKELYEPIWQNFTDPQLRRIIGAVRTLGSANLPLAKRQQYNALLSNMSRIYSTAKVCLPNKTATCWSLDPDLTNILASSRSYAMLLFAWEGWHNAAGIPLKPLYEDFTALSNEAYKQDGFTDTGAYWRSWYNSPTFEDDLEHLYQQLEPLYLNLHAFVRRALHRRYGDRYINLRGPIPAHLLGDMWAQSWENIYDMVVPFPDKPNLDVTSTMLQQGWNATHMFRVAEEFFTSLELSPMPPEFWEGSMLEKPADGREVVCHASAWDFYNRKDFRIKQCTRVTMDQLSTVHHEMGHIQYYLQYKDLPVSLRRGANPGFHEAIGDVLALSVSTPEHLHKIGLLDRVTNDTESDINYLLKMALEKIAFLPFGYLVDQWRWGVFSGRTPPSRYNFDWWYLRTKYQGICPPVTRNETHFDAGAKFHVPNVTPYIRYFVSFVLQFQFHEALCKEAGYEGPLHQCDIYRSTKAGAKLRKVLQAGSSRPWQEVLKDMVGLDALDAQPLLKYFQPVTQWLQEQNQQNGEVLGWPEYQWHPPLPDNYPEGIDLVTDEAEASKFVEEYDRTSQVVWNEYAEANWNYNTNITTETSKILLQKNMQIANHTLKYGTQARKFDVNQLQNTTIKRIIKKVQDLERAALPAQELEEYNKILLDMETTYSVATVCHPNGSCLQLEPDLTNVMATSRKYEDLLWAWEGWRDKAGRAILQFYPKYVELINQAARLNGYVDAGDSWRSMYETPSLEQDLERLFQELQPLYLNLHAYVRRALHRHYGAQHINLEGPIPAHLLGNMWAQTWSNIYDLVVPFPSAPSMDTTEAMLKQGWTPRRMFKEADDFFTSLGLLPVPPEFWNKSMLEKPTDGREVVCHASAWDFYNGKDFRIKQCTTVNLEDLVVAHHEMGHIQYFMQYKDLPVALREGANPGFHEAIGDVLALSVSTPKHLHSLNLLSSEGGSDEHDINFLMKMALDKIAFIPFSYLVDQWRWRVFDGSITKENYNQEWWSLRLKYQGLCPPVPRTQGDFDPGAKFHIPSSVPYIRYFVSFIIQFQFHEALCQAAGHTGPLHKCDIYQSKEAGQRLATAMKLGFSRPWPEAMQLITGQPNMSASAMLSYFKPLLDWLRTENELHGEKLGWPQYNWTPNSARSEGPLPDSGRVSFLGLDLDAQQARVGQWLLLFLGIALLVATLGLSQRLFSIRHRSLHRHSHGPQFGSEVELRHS

| Activity [1] | Ratio Ki [2] | Ki [3] | SMILES |
| --- | --- | --- | --- |
| inactive | > 25 | 26.3 µM | NCCCC[C@H](N[C@H](CCc1ccccc1)C(=O)O)C(=O)N[C@@H](Cc1c[nH]c2ccccc12)C(=O)O |
| inactive | > 100 | 7 µM | NCCCC[C@H](N[C@@H](CCc1ccccc1)C(=O)O)C(=O)N[C@@H](Cc1c[nH]c2ccccc12)C(=O)O |
